Tests used:
[1] = biological target: T1, Ephrin type-B receptor 3 (Homo sapiens) (UniProt P54753); experiment: Selectivity interaction (KinomeScan (DiscoverX)) EUB0001049a EPHB3; details: at 1 µM
T1 sequence (whole entry): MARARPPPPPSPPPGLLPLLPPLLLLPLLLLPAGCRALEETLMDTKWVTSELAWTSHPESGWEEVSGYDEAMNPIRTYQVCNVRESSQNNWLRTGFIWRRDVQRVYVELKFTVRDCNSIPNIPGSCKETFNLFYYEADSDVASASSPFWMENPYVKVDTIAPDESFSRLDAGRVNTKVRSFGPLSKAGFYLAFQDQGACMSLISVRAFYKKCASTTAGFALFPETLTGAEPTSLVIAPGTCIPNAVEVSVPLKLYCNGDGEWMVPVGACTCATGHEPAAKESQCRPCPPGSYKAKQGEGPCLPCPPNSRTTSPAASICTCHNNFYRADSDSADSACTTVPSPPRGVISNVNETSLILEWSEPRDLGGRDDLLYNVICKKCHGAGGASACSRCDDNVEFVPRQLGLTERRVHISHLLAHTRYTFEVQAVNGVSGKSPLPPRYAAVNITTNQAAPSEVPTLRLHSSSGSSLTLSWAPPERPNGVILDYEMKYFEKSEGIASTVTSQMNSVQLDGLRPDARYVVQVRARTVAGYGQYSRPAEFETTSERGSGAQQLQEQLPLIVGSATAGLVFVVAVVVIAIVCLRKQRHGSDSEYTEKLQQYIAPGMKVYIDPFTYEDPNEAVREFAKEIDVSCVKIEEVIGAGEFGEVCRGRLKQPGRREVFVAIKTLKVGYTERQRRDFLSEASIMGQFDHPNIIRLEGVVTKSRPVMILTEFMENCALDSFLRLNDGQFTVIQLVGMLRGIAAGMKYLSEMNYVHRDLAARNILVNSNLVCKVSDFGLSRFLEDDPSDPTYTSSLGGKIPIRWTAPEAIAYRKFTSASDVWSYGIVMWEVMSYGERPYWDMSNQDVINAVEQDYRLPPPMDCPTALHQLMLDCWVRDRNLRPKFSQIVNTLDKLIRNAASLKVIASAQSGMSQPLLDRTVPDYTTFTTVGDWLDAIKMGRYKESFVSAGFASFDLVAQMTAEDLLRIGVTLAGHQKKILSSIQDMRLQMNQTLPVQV

[2] = biological target: Tyrosine-protein kinase Lck (Homo sapiens, UniProt P06239); experiment: Selectivity interaction (KinomeScan (DiscoverX)) EUB0001049a LCK; details: at 1 µM
Chain of Tyrosine-protein kinase Lck (P06239 2-509 limits assumed): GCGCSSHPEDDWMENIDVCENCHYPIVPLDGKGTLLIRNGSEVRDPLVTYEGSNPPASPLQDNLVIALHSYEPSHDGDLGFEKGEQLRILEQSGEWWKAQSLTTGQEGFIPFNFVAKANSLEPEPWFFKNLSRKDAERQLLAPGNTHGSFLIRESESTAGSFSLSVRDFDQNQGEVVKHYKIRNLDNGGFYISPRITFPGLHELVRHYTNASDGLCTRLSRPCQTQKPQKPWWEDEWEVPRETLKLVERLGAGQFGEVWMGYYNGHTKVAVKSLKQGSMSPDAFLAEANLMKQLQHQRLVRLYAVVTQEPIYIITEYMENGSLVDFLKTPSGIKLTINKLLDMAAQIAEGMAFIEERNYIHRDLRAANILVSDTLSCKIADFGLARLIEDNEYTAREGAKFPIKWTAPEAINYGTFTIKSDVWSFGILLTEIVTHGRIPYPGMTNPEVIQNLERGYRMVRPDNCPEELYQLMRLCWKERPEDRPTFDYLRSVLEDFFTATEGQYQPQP

[3] = biological target: Serine/threonine-protein kinase Chk2 (Homo sapiens) (UniProt O96017); experiment: Selectivity interaction (Ambit KINOMEscan and KiNATiv profiling in Jurkat cells) EUB0000090b CHEK2; format: cell-based; details: at 1 µM
Chain of Serine/threonine-protein kinase Chk2 (Homo sapiens) (O96017 whole entry): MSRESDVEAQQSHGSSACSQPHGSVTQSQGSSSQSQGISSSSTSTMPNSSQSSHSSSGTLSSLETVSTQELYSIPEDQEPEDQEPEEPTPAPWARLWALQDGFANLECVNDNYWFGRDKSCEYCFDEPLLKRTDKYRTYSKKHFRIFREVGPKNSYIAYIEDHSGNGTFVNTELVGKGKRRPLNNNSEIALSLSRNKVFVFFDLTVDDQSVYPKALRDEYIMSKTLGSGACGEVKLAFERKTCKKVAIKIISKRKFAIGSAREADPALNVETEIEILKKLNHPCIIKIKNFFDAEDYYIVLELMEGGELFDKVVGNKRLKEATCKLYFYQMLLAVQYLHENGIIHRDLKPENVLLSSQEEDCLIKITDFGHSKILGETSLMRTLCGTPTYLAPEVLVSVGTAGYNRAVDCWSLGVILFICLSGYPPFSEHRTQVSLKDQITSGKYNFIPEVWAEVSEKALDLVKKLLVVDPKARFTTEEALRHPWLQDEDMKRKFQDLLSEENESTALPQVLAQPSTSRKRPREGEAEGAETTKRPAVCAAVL

[4] = biological target: Casein kinase II subunit alpha (Homo sapiens, UniProt P68400); experiment: Selectivity interaction (Ambit KINOMEscan and KiNATiv profiling in Jurkat cells) EUB0000090b CSNK2A1; format: cell-based; details: at 1 µM
[5] = biological target: Eukaryotic elongation factor 2 kinase (Homo sapiens, UniProt O00418)
[6] = biological target: T2, MAP kinase-activated protein kinase 5 (Homo sapiens) (UniProt Q8IW41); experiment: Selectivity interaction (KinomeScan (DiscoverX)) EUB0000595a MAPKAPK5; details: at 10 µM
T2 sequence (whole entry): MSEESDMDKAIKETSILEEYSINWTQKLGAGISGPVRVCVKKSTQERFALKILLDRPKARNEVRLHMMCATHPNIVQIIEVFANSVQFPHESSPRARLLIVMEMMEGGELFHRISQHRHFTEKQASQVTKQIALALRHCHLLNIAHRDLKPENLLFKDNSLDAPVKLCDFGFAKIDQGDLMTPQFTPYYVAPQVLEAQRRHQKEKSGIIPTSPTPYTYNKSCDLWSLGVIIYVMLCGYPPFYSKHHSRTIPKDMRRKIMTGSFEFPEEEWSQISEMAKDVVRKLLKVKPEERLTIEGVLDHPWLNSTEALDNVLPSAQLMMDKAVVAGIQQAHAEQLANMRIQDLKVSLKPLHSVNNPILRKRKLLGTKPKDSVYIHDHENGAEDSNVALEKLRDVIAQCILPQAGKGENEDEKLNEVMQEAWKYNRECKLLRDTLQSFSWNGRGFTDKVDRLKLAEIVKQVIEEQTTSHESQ

[7] = biological target: Serine/threonine-protein kinase MRCK gamma (Homo sapiens) (UniProt Q6DT37); experiment: Selectivity interaction (KinomeScan (DiscoverX)) EUB0000229b CDC42BPG; details: at 10 µM
[8] = biological target: Mitogen-activated protein kinase kinase kinase 9 (Homo sapiens) (UniProt P80192); experiment: Selectivity interaction (ProQinase) EUB0000171b MAP3K9
Chain of Mitogen-activated protein kinase kinase kinase 9 (Homo sapiens) (P80192 whole entry, looked up): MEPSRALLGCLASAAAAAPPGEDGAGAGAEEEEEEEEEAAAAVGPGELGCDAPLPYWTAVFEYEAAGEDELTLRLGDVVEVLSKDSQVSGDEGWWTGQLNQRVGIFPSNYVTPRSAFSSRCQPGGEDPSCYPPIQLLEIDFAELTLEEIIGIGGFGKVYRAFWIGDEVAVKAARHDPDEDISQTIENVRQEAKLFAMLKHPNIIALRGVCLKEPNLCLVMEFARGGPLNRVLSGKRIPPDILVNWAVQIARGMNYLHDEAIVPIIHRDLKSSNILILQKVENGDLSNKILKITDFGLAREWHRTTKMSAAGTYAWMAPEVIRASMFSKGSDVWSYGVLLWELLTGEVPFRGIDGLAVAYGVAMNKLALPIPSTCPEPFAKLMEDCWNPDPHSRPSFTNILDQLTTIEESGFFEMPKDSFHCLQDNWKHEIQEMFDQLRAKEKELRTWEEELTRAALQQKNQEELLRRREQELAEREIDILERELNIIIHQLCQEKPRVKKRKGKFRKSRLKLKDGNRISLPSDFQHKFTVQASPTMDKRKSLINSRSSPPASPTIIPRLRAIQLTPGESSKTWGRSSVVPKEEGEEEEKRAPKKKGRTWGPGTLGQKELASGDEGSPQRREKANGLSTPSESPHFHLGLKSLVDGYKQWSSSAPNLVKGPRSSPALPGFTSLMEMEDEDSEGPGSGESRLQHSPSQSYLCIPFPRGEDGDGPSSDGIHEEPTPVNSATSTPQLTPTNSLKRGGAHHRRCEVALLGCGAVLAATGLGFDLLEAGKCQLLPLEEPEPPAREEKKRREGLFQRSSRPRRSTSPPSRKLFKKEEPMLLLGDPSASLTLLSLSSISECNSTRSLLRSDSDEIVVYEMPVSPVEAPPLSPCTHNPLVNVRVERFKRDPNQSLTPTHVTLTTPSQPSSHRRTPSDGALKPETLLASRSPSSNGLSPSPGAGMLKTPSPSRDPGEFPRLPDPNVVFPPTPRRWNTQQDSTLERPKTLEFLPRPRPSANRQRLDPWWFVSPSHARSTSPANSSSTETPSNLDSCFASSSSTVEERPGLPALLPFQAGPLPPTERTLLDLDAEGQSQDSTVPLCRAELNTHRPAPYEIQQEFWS

[9] = test system: Hepatocyte growth factor receptor (Homo sapiens), P08581 [M1250T]; experiment: (§1) Selectivity interaction (KinomeScan (DiscoverX)) EUB0000045b MET
Chain of Hepatocyte growth factor receptor (Homo sapiens), P08581 [M1250T] (P08581 whole entry M1250T): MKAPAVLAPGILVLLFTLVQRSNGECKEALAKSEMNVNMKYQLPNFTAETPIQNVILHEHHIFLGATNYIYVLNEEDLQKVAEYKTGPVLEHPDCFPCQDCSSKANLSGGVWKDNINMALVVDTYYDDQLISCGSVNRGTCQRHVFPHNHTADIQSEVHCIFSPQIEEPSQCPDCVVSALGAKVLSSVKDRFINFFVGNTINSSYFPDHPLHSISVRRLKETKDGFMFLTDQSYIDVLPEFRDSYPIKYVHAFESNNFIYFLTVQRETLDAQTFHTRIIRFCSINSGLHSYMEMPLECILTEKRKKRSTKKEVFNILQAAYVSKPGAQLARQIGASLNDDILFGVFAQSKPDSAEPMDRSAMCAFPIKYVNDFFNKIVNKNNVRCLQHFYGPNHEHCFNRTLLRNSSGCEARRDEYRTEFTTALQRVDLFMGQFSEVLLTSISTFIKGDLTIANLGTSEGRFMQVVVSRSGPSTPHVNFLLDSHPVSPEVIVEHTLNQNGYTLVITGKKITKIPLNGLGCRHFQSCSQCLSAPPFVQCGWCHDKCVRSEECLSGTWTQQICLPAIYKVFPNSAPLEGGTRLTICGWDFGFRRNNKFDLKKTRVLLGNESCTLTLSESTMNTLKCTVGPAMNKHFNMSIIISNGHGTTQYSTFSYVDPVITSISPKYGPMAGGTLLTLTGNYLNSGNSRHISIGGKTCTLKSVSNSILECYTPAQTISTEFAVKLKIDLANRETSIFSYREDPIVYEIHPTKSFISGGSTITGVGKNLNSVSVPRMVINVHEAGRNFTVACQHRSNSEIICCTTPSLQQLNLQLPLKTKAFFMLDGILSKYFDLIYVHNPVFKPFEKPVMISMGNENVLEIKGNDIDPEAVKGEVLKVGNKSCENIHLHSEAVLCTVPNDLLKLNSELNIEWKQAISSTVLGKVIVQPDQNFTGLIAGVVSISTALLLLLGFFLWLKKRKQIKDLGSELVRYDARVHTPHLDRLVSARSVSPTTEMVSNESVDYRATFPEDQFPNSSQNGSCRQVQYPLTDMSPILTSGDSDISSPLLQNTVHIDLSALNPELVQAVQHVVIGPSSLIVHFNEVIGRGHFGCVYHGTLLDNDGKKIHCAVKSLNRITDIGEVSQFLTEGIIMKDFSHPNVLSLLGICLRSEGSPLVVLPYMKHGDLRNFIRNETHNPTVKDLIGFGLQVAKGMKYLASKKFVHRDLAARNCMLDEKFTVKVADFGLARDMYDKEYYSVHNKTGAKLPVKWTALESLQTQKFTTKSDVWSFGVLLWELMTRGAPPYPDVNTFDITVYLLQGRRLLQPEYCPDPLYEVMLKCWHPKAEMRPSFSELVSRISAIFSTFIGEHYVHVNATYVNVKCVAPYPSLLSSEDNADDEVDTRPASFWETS

[10] = test system: Hepatocyte growth factor receptor (Homo sapiens), P08581 [Y1235D]; experiment: as §1
[11] = biological target: Hepatocyte growth factor receptor (Homo sapiens, UniProt P08581); experiment: as §1
Chain of Hepatocyte growth factor receptor (P08581 whole entry): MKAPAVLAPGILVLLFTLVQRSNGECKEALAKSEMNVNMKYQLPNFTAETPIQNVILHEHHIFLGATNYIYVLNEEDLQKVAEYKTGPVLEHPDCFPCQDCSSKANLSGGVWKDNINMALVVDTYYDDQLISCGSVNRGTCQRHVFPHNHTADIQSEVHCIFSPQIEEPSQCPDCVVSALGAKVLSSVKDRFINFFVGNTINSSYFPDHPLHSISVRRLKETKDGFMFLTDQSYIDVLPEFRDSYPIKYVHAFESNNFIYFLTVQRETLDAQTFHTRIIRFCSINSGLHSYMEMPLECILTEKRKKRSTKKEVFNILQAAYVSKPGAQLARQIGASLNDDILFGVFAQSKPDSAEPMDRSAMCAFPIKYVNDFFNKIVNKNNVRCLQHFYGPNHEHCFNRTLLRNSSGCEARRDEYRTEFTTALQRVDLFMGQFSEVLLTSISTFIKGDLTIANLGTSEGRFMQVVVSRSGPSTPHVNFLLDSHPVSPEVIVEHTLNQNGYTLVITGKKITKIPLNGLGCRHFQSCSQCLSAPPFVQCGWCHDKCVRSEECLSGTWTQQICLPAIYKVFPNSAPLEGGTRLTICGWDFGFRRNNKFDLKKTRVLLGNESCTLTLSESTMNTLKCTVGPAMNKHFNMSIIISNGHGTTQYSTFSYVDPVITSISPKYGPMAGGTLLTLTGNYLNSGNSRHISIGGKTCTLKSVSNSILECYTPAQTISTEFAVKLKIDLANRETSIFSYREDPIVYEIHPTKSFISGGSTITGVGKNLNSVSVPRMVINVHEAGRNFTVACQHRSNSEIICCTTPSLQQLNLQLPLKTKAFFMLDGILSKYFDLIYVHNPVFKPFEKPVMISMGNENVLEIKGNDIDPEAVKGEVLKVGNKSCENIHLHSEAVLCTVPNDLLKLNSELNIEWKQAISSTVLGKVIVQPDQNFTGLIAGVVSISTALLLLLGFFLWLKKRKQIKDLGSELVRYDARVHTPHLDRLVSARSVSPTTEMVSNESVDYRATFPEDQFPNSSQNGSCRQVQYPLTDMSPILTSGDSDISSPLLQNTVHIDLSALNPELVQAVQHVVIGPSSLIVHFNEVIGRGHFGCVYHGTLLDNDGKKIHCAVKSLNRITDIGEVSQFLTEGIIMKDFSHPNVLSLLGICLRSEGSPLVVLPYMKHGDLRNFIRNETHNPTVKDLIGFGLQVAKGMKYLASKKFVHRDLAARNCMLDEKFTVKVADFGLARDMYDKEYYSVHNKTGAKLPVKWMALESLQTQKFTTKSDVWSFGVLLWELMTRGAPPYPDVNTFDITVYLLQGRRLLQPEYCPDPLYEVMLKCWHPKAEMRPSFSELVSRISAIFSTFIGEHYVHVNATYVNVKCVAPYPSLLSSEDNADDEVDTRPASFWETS

`COc1cc(Nc2nc(C)cc(-c3cnn4nc(OC)ccc34)n2)cc(C(F)(F)F)c1` gave a % of control [1] of 97% and a % of control [2] of 96%.
In the case of `CN(C)C/C=C/C(=O)Nc1ccc(C(=O)N2CCCC(Nc3ncc(Cl)c(-c4c[nH]c5ccccc45)n3)C2)cc1` (stereo not given), the % of control [3] is reported as 81% and the % of control [4] is reported as 78%.
`CCc1cccc(CC)c1NC(=O)c1nn(C)c2c1CCc1cnc(Nc3ccc(C(=O)NC4CCN(C)CC4)cc3OC(F)(F)F)nc1-2` showed an IC50 [5] of over 10 µM.
`COCC(=O)NC/C=C/c1ccc2ncnc(Nc3ccc(Oc4ccc(C)nc4)c(C)c3)c2c1` [CP-724714] was tested, and the % of control [6] was 100%.
`COc1cc(N(C)c2ccnc3ccc(C(F)(F)F)cc23)cc(OC)c1OC` gave a % binding [7] of 94%.
`C=CC(=O)Nc1cccc(C(=O)Nc2ccc(Nc3cc(-c4[nH]c(SC)nc4C)ccn3)cc2)c1` showed a % of control ([8]; at 1 µM) of 80% and a % of control ([8]; at 5 µM) of 45%.
With `C=CC(=O)Nc1cc(-n2c(=O)ccc3cnc4ccc(-c5ccc(NS(C)(=O)=O)cc5)cc4c32)ccc1C` the % of control ([9]; at 1 µM) was 80%, the % of control ([9]; at 10 µM) was 90% and the % of control ([10]; at 1 µM) was 95%. For the same compound, the % of control ([10]; at 10 µM) was 100%, the % of control ([11]; at 1 µM) was 100% and the % of control ([11]; at 10 µM) was 64%.
